# Molecular target: T1, human Prostaglandin D Synthase (GST2) (Homo sapiens, UniProt O60760)
# T1 construct: the open reading frame of human Prostaglandin D Synthase was amplified from cDNA; made in house; host or cells: E. coli TOP10F'
# Experiment: Homogeneous biochemical assay of human Prostaglandin D Synthase (GST2) based on its glutathion-S-transferase activity (GSH conjugation to monochlorobimane, fluorescence)
# Details: given beside the compound name in Examples 1 to 167; read-out: Potency Range (GST2 IC50)
# Method in brief: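 N-His-tagged human PGD synthase from E. coli, assayed via its GST activity: GSH conjugation to monochlorobimane in 50 mM MES/KOH pH 6.1, 0.7 mM GSH, 2 mM MgCl2. Compounds at final picomolar to triple-digit micromolar concentrations.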
# T1 sequence (O60760 whole entry): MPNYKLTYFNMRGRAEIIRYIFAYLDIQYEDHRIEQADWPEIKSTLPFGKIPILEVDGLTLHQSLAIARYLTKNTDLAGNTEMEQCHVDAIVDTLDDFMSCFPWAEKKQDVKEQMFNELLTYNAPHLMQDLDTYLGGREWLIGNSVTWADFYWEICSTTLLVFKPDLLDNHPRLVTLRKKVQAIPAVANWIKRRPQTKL
row,SMILES,IC50 [nM]
1,"O=C(Nc1ccc(NC(=O)N2CCN(C(=O)c3cccc(F)c3)CC2)cc1)c1ccc(F)cc1 [Compound 120, 4-(3-Fluoro-benzoyl)-piperazine-1-carboxylic acid [4-(4-fluoro-benzoylamino)-phenyl]-amide]",11 to 100
2,"CC(C)C(=O)Nc1ccc(NC(=O)N2CCN(C(=O)c3cccc(F)c3)CC2)cc1 [Compound 121, 4-(3-Fluoro-benzoyl)-piperazine-1-carboxylic acid (4-isobutyrylamino-phenyl)-amide]",101 to 1000
3,"O=C(Nc1ccc(NC(=O)N2CCN(C(=O)c3cccc(F)c3)CC2)cc1)c1cccnc1 [Compound 122, 4-(3-Fluoro-benzoyl)-piperazine-1-carboxylic acid {4-[(pyridine-3-carbonyl)-amino]-phenyl}-amide]",101 to 1000
4,"O=C(Nc1ccc(NC(=O)N2CCN(C(=O)c3cccc(F)c3)CC2)cc1)C1CCOCC1 [Compound 124, 4-(3-Fluoro-benzoyl)-piperazine-1-carboxylic acid {4-[(tetrahydro-pyran-4-carbonyl)-amino]-phenyl}-amide]",101 to 1000
5,"O=C(Nc1ccc(NS(=O)(=O)c2ccccc2)cc1)N1CCN(C(=O)c2cccc(F)c2)CC1 [Compound 125, 4-(3-Fluoro-benzoyl)-piperazine-1-carboxylic acid (4-benzenesulfonylamino-phenyl)-amide]",11 to 100
6,"O=C(Nc1ccc(NS(=O)(=O)C2CC2)cc1)N1CCN(C(=O)c2cccc(F)c2)CC1 [Compound 127, 4-(3-Fluoro-benzoyl)-piperazine-1-carboxylic acid (4-cyclopropanesulfonylamino-phenyl)-amide]",11 to 100
7,"O=C(Nc1ccc(NS(=O)(=O)c2ccc(F)cc2)cc1)N1CCN(C(=O)c2cccc(F)c2)CC1 [Compound 128, 4-(3-Fluoro-benzoyl)-piperazine-1-carboxylic acid [4-(4-fluoro-benzenesulfonylamino)-phenyl]-amide]",11 to 100
8,"CS(=O)(=O)N(c1ccc(NC(=O)N2CCN(C(=O)c3cccc(F)c3)CC2)cc1)S(C)(=O)=O [Compound 129, N-{4-[bis(methylsulfonyl)amino]phenyl}-4-(3-fluorobenzoyl)piperazine-1-carboxamide]",11 to 100
9,"O=C(Nc1cccc(NS(=O)(=O)c2ccc(F)cc2)c1)N1CCN(C(=O)c2cccc(F)c2)CC1 [Compound 130, 4-(3-Fluoro-benzoyl)-piperazine-1-carboxylic acid [3-(4-fluoro-benzenesulfonylamino)-phenyl]-amide]",101 to 1000
10,"O=C(Nc1cccc(NS(=O)(=O)C2CC2)c1)N1CCN(C(=O)c2cccc(F)c2)CC1 [Compound 131, 4-(3-Fluoro-benzoyl)-piperazine-1-carboxylic acid (3-cyclopropanesulfonylamino-phenyl)-amide]",101 to 1000
11,"O=C(Nc1ccc(NS(=O)(=O)C2CC2)cc1)N1CCN(C(=O)c2cc(F)ccc2F)CC1 [Compound 132, 4-(2,5-Difluoro-benzoyl)-piperazine-1-carboxylic acid (4-cyclopropanesulfonylamino-phenyl)-amide]",101 to 1000
12,"CS(=O)(=O)Nc1ccc(NC(=O)N2CCN(C(=O)c3cc(F)ccc3F)CC2)cc1 [Compound 133, 4-(2,5-Difluoro-benzoyl)-piperazine-1-carboxylic acid (4-methanesulfonylamino-phenyl)-amide]",101 to 1000
13,"O=C(Nc1ccc([N+](=O)[O-])c(F)c1)N1CCN(C(=O)c2cccc(F)c2)CC1 [Compound 134, 4-(3-Fluoro-benzoyl)-piperazine-1-carboxylic acid (3-fluoro-4-nitro-phenyl)-amide]",101 to 1000
14,"O=C(Nc1ccc(-c2nnn[nH]2)cc1)N1CCN(C(=O)c2cccc(F)c2)CC1 [Compound 135, 4-(3-Fluoro-benzoyl)-piperazine-1-carboxylic acid [4-(1H-tetrazol-5-yl)-phenyl]-amide]",11 to 100
15,"Nc1ccc2nc(NC(=O)N3CCN(C(=O)c4cccc(F)c4)CC3)sc2c1 [Compound 136, 4-(3-Fluoro-benzoyl)-piperazine-1-carboxylic acid (6-amino-benzothiazol-2-yl)-amide]",11 to 100
16,"O=C(Nc1nc2ccc(NS(=O)(=O)C3CC3)cc2s1)N1CCN(C(=O)c2cccc(F)c2)CC1 [Compound 137, 4-(3-Fluoro-benzoyl)-piperazine-1-carboxylic acid (6-cyclopropanesulfonylamino-benzothiazol-2-yl)-amide]",11 to 100
17,"O=C(O)c1ccc2nc(NC(=O)N3CCN(C(=O)c4cccc(F)c4)CC3)sc2c1 [Compound 138, 2-{[4-(3-Fluoro-benzoyl)-piperazine-1-carbonyl]-amino}-benzothiazole-6-carboxylic acid]",11 to 100
18,"O=C(Nc1nc2ccc(C(=O)N3CCOCC3)cc2s1)N1CCN(C(=O)c2cccc(F)c2)CC1 [Compound 139, 4-(3-Fluoro-benzoyl)-piperazine-1-carboxylic acid [6-(morpholine-4-carbonyl)-benzothiazol-2-yl]-amide]",11 to 100
19,"O=C(Nc1ccc2nc(NC(=O)N3CCN(C(=O)c4cccc(F)c4)CC3)sc2c1)c1ccccn1 [Compound 140, 4-(3-Fluoro-benzoyl)-piperazine-1-carboxylic acid {6-[(pyridine-2-carbonyl)-amino]-benzothiazol-2-yl}-amide]",11 to 100

row,SMILES,IC50 [nM]
1,"NC(=O)c1ccc2nc(NC(=O)N3CCN(C(=O)c4cccc(F)c4)CC3)sc2c1 [Compound 141, 2-{[4-(3-Fluoro-benzoyl)-piperazine-1-carbonyl]-amino}-benzothiazole-6-carboxylic acid amide]",11 to 100
2,"CC(C)c1noc(-c2ccc(NC(=O)N3CCN(C(=O)c4cccc(F)c4)CC3)cc2)n1 [Compound 142, 4-(3-Fluoro-benzoyl)-piperazine-1-carboxylic acid [4-(3-isopropyl-[1,2,4]oxadiazol-5-yl)-phenyl]-amide]",101 to 1000
3,O=C(Nc1ccc(-n2cccn2)c(F)c1)N1CCN(C(=O)c2cccc(F)c2)CC1 [Compound 143],101 to 1000
4,O=C(Nc1ccc(-n2ccnc2)c(F)c1)N1CCN(C(=O)c2cccc(F)c2)CC1 [Compound 144],101 to 1000
5,O=C(Nc1ccc(-n2cncn2)c(F)c1)N1CCN(C(=O)c2cccc(F)c2)CC1 [Compound 145],101 to 1000
6,"O=C(Nc1ccc(N2CCN(c3ccccn3)CC2)c(F)c1)N1CCN(C(=O)c2cccc(F)c2)CC1 [Compound 146, 4-(3-Fluoro-benzoyl)-piperazine-1-carboxylic acid [3-fluoro-4-(4-pyridin-2-yl-piperazin-1-yl)-phenyl]-amide]",11 to 100
7,"O=C(Nc1ccc(-c2cccnc2)c(F)c1)N1CCN(C(=O)c2cccc(F)c2)CC1 [Compound 147, 4-(3-Fluoro-benzoyl)-piperazine-1-carboxylic acid (3-fluoro-4-pyridin-3-yl-phenyl)-amide]",11 to 100
8,"O=C(Nc1ccc(C(F)(F)F)cc1)N1CCN(C(=O)c2cc(F)ccc2F)CC1 [Compound 148, 4-(2,5-Difluoro-benzoyl)-piperazine-1-carboxylic acid (4-trifluoromethyl-phenyl)-amide]",101 to 1000
9,"O=C(Nc1ccc(C(F)(F)F)cc1)N1CCN(C(=O)c2cccc(F)c2)CC1 [Compound 149, 4-(3-Fluoro-benzoyl)-piperazine-1-carboxylic acid (4-trifluoromethyl-phenyl)-amide]",101 to 1000
10,"O=C(c1cccc(F)c1)N1CCN(C(=S)Nc2ccc(N3CCOCC3)nc2)CC1 [Compound 151, 4-(3-Fluoro-benzoyl)-piperazine-1-carbothioic acid (6-morpholin-4-yl-pyridin-3-yl)-amide]",11 to 100
11,"Cc1ccccc1C(=O)N1CCN(C(=S)Nc2ccc(N3CCOCC3)nc2)CC1 [Compound 152, 4-(2-Methyl-benzoyl)-piperazine-1-carbothioic acid (6-morpholin-4-yl-pyridin-3-yl)-amide]",11 to 100
12,"O=C(c1cccc([N+](=O)[O-])c1)N1CCN(C(=S)Nc2ccc(N3CCOCC3)nc2)CC1 [Compound 153, 4-(3-Nitro-benzoyl)-piperazine-1-carbothioic acid (6-morpholin-4-yl-pyridin-3-yl)-amide]",101 to 1000
13,"NC(=O)c1cccc(C(=O)N2CCN(C(=O)Nc3ccc(F)cc3)CC2)c1 [Compound 157, 4-(3-Carbamoyl-benzoyl)-piperazine-1-carboxylic acid (4-fluoro-phenyl)-amide]",101 to 1000
14,"NC(=O)c1cccc(NC(=O)N2CCN(C(=O)c3cccc(F)c3)CC2)c1 [Compound 158, 4-(3-Fluoro-benzoyl)-piperazine-1-carboxylic acid (3-carbamoyl-phenyl)-amide]",101 to 1000
15,"O=C(Nc1cccc(-c2ncn[nH]2)c1)N1CCN(C(=O)c2cccc(F)c2)CC1 [Compound 159, 4-(3-Fluoro-benzoyl)-piperazine-1-carboxylic acid [3-(2H-[1,2,4]triazol-3-yl)-phenyl]-amide]",101 to 1000
16,"NC(=O)c1cc(NC(=O)N2CCN(C(=O)c3cccc(F)c3)CC2)ccc1F [Compound 160, 4-(3-Fluoro-benzoyl)-piperazine-1-carboxylic acid (3-carbamoyl-4-fluoro-phenyl)-amide]",101 to 1000
17,"O=C(Nc1ccc(F)c(-c2ncn[nH]2)c1)N1CCN(C(=O)c2cccc(F)c2)CC1 [Compound 161, 4-(3-Fluoro-benzoyl)-piperazine-1-carboxylic acid [4-fluoro-3-(2H-[1,2,4]triazol-3-yl)-phenyl]-amide]",101 to 1000
18,"CC(C)c1noc(-c2cccc(NC(=O)N3CCN(C(=O)c4cccc(F)c4)CC3)c2)n1 [Compound 162, 4-(3-Fluoro-benzoyl)-piperazine-1-carboxylic acid [3-(3-isopropyl-[1,2,4]oxadiazol-5-yl)-phenyl]-amide]",11 to 100
19,"CC(C)c1noc(-c2cc(NC(=O)N3CCN(C(=O)c4cccc(F)c4)CC3)ccc2F)n1 [Compound 163, 4-(3-Fluoro-benzoyl)-piperazine-1-carboxylic acid [4-fluoro-3-(3-isopropyl-[1,2,4]oxadiazol-5-yl)-phenyl]-amide]",11 to 100
